Calls of active or inactive are those of the source. The calls are words filed in the database; no cut-off is given here.
Experiments:
Cortical neurone [1] = assay: Antialzheimer activity in amyloid beta (25 to 35)-treated Sprague-Dawley rat cortical neurons assessed as dendrite extension activity at 1 uM after 4 days by fluorescence microscopic analysis; format: functional
[2] = Cytotoxicity against Sprague-Dawley rat cortical neurons assessed as cell viability after 48 hrs by CellTiter-Glo luminescent assay; details: cortical neurone
Cortical neurone [3] = assay: Antialzheimer activity in amyloid beta (25 to 35)-treated Sprague-Dawley rat cortical neurons assessed as dendrite extension activity at 10 uM after 4 days by fluorescence microscopic analysis; format: functional
[4] = Cytotoxicity against Sprague-Dawley rat cortical neurons assessed as cell viability at 1 to 10 uM after 48 hrs by CellTiter-Glo luminescent assay; details: cortical neurone

SMILES | Activity (Cortical neurone [1]) | Activity [2] | Activity (Cortical neurone [3]) | Activity [4]
Oc1ccc2c(c1)[C@@H]1CCC3(OCCO3)C3=CO[C@H](C2)[C@@H]31 | inactive | – | – | –
N#C[C@]12CCC3(OCCO3)C3=CO[C@H](Cc4cc(C#CCCO)c(O)cc41)[C@@H]32 | – | Dose-dependent effect | – | –
N#C[C@]12CCC[C@@H]3CO[C@H](Cc4ccc(O)cc41)[C@@H]32 | inactive | Dose-dependent effect | Active | –
N#C[C@]12CCC3(OCCO3)C3=CO[C@H](Cc4cc(Sc5ccccc5)c(O)cc41)[C@@H]32 | Active | – | – | –
N#C[C@]12CCC3(OCCO3)C3=CO[C@H](Cc4cc(-c5ccccc5)c(O)cc41)[C@@H]32 | – | Dose-dependent effect | – | –
N#C[C@]12CCC3(OCCO3)C3=CO[C@H](Cc4cc(O)c(O)cc41)[C@@H]32 | inactive | – | – | –
N#C[C@]12CCC3(OCCO3)C3=CO[C@H](Cc4cc(I)c(O)cc41)[C@@H]32 | – | Dose-dependent effect | – | –
N#C[C@]12CC=CC3=CO[C@H](Cc4cc(-c5ccccc5)c(O)cc41)[C@@H]32 | – | Dose-dependent effect | – | –
C#Cc1cc2c(cc1O)[C@]1(C#N)CCC3(OCCO3)C3=CO[C@H](C2)[C@@H]31 | inactive | Dose-dependent effect | Active | –
N#C[C@]12CC[C@H](O)[C@@H]3CO[C@H](Cc4ccc(O)cc41)[C@@H]32 | – | Dose-dependent effect | – | –
CCCCCCCCC/C=C/c1cc2c(cc1O)[C@]1(C#N)CCC3(OCCO3)C3=CO[C@H](C2)[C@@H]31 | Active | Dose-dependent effect | inactive | –
N#C[C@]12CC=CC3=CO[C@H](Cc4cc(C#CCCO)c(O)cc41)[C@@H]32 | Active | Dose-dependent effect | inactive | –
C#Cc1cc2c(cc1O)[C@]1(C#N)CC=CC3=CO[C@H](C2)[C@@H]31 | inactive | Dose-dependent effect | Active | –
CCOc1cc2c(cc1O)[C@]1(C#N)CCC3(OCCO3)C3=CO[C@H](C2)[C@@H]31 | Active | – | – | –
N#C[C@]12CCC3(OCCO3)C3=CO[C@H](Cc4ccc(O)cc41)[C@@H]32 | – | – | – | Non-toxic
N#C[C@]12CCC3(OCCO3)[C@@H]3CO[C@H](Cc4ccc(O)cc41)[C@@H]32 | Active | – | – | –
N#C[C@]12CC=CC3=CO[C@H](Cc4ccc(O)cc41)[C@@H]32 | – | Dose-dependent effect | – | –
N#C[C@]12CC[C@H](O)C3=CO[C@H](Cc4ccc(O)cc41)[C@@H]32 | – | Dose-dependent effect | – | –

Source: ChEMBL document CHEMBL2413019, “Structure-activity-relationship studies on dihydrofuran-fused perhydrophenanthrenes as an anti-Alzheimer's disease agent” (Bioorg Med Chem, 2013)
